# Data from patent US9120854B2, “Detection and treatment of pancreatic, ovarian and other cancers” (SEATTLE GENETICS, INC., priority 2008, dated 2015).
# Like-named read-outs stand apart in the source and are kept apart here. Square brackets hold non-standard residues; d marks the D form. Peptide text beside a SMILES is read from it. Dolaproine = CO[C@@H]([C@@H]1CCCN1)[C@@H](C)C(=O)O; Dil = CC[C@H](C)[C@H](NC)[C@@H](CC(=O)O)OC; NMeV = CN[C@H](C(=O)O)C(C)C
# B1: h1F6mc-MMAF(8) (conjugate, chains of the INN, looked up)
# VH: QVQLVQSGAEVKKPGASVKVSCKASGYTFTNYGMNWVRQAPGQGLKWMGWINTYTGEPTYADAFKGRVTMTRDTSISTAYMELSRLRSDDTAVYYCARDYGDYGMDYWGQGTTVTVSS
# VL: DIVMTQSPDSLAVSLGERATINCRASKSVSTSGYSFMHWYQQKPGQPPKLLIYLASNLESGVPDRFSGSGSGTDFTLTISSLQAEDVAVYYCQHSREVPWTFGQGTKVEIK
# modifications: maleimidocaproyl-MMAF, 8 drugs per antibody
# Legend:
# [1] = tested on: native CD70 protein (modified cynomolgus CD70); assay: Binding of h1F6 to native CD70 on transfected pancreatic cell lines; conditions: transfected HPAFII, PANC-1 and MiaPaCa-2 cell lines
# SKOV-3 cells = assay: In vitro cytotoxic activity of h1F6 antibody drug conjugates on SKOV-3 cells (CelltiterGlo viability); type: cell-based; conditions: 96 hours, viability by Promega CelltiterGlo
# Procedure: (See International Patent Publication WO 2006-113909.) The cells were incubated with the following anti-CD70 antibody drug conjugates: h1F6-vc-MMAF(4), h1F6vc-MMAE(4), 1F6mc-MMAF(4), or h1F6mc-MMAF(8) or free MMAF. (See the specification and U.S. Patent Application Publication Nos. 2005-0238649 and 2006-0233794 for a description of the drug linkers. The number in parentheses after each conjugate indicates the average drug loading per antibody.) The SKOV-3 cells were incubated with the conjugates at the indicated concentrations for 96 hours. For these studies, viability was determined using Promega CelltiterGlo.
molecule,measurement,setting,value
"h1F6: humanized form of anti-CD70 monoclonal antibody 1F6, binds native CD70",binding to native CD70 protein,[1],binds
"CC[C@H](C)[C@@H]([C@@H](CC(=O)N1CCC[C@H]1[C@H](OC)[C@@H](C)C(=O)N[C@@H](Cc1ccccc1)C(=O)O)OC)N(C)C(=O)[C@@H](NC(=O)[C@@H](NC)C(C)C)C(C)C [MMAF, dovaline-valine-dolaisoleunine-dolaproine-phenylalanine, reference compound] (H-[NMeV]V[Dil][Dolaproine]F-OH)",IC50,"SKOV-3 cells; free MMAF, read-out: IC50",18 nM
B1,IC50,SKOV-3 cells,0.012 µg/mL
